US20240092835A1, “NOVEL PEPTIDES CAPABLE OF ALTERING NK CELL ACTIVITY” (Massachusetts Institute of Technology, priority 2022, published 2024)

Key:
NKG2A+/NKG2C− NK cells = assay: NK cell activation markers in NKG2A+/NKG2C- NK cells incubated with peptide and K562 expressing HLA-E (inhibition); type: cell-based, human; conditions: for percentage of CCL3+ NK cells / percentage of CD107a+ NK cells / percentage of IFNG+ NK cells / percentage of TNF+ NK cells: NKG2A+/NKG2C- NK cells, K562/HLA-E
Description: (§1) A human immortalized myelogenous leukemia cell line (K562), which expresses HLA-E was incubated with novel peptides (Table 1) derived from the human proteome or human cytomegalovirus proteome. […] Controls assessments were also performed using NKG2A−/NKG2C− cells (Tables 10-13). Inhibition was indicated by a decrease in percent cells positive for cell surface markers, while activation was indicated by an increase in percent cells positive for cell surface markers.

NKG2A−/NKG2C+ NK cells = assay: NK cell activation markers in NKG2A-/NKG2C+ NK cells incubated with peptide and K562 expressing HLA-E (activation); type: cell-based, human; conditions: for percentage of CCL3+ NK cells / percentage of CD107+ NK cells / percentage of IFNG+ NK cells / percentage of TNF+ NK cells: NKG2A-/NKG2C+ NK cells, K562/HLA-E
Description: as §1

NKG2A−/NKG2C− NK cells = assay: NK cell activation markers in control NKG2A-/NKG2C- NK cells incubated with peptide and K562 expressing HLA-E; type: cell-based, human
Description: as §1

HLA-E = target: T1, HLA-E (Homo sapiens, UniProt P13747); assay: HLA-E surface stabilization assay with RMA-S/HLA-E cells; type: cell-based; conditions: 30 μM peptide, 16 hours; for HLA-E surface expression stability (GeoMFI): anti-HLA-E antibody
T1 construct: expressed in transfected cells; host or cells: RMA-S/HLA-E cells (antigen processing-defective lymphoma cell line)
Description: HLA-E surface expression was assessed by measuring geometric mean fluorescence intensity (GeoMFI) in RMA-S cells following immunofluorescence staining with an anti-HLA-E antibody (Table 14). Increased GeoMFI was indicative of increased HLA-E surface expression stability following novel peptide exposures (FIG. 3).

[1] = K562 expressing HLA-E, CD107a, IFNG, TNF, CCL3

T1 sequence (P13747 22-358): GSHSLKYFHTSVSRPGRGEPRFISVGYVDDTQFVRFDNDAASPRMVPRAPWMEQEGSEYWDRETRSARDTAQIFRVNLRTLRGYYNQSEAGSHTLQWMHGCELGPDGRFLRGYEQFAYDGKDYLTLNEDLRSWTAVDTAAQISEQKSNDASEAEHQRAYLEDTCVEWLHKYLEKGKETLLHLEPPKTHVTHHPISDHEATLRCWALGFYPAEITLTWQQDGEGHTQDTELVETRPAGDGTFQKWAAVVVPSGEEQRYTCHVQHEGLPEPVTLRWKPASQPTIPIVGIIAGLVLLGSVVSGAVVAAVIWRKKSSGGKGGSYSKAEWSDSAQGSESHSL
T1 sequence (P61769 21-119 partner): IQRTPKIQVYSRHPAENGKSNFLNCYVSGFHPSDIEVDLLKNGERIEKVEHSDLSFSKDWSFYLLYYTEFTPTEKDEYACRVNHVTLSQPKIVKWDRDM

## ILTDRSLWL [human4, peptide FBXO41 670-678 derived from the human proteome]
NKG2A+/NKG2C− NK cells; [1]
  effect on NKG2A+/NKG2C− NK cell inhibition (in words): mild inhibitory effects
NKG2A+/NKG2C− NK cells; Trial 1
  percentage of CCL3+ NK cells: 35.5%
  percentage of CD107a+ NK cells: 16.9%
  percentage of IFNG+ NK cells: 5.47%
  percentage of TNF+ NK cells: 1.97%
NKG2A+/NKG2C− NK cells; Trial 2
  percentage of CCL3+ NK cells: 56.4%
  percentage of CD107a+ NK cells: 23.7%
  percentage of IFNG+ NK cells: 8.81%
  percentage of TNF+ NK cells: 4.06%
NKG2A+/NKG2C− NK cells; Trial 3
  percentage of CCL3+ NK cells: 34.7%
  percentage of CD107a+ NK cells: 22%
  percentage of IFNG+ NK cells: 13.3%
  percentage of TNF+ NK cells: 7.29%
NKG2A+/NKG2C− NK cells; Trial 4
  percentage of CCL3+ NK cells: 16.1%
  percentage of CD107a+ NK cells: 15%
  percentage of IFNG+ NK cells: 3.31%
  percentage of TNF+ NK cells: 2.82%
NKG2A+/NKG2C− NK cells; Trial 5
  percentage of CCL3+ NK cells: 32.7%
  percentage of CD107a+ NK cells: 14.8%
  percentage of IFNG+ NK cells: 6.82%
  percentage of TNF+ NK cells: 3.39%
NKG2A+/NKG2C− NK cells; Trial 6
  percentage of CCL3+ NK cells: 13.4%
  percentage of CD107a+ NK cells: 12.8%
  percentage of IFNG+ NK cells: 3.02%
  percentage of TNF+ NK cells: 2.79%
NKG2A−/NKG2C+ NK cells; [1]
  effect on NKG2A−/NKG2C+ NK cell activation (in words): strong activating effects
NKG2A−/NKG2C+ NK cells; Trial 1
  percentage of CCL3+ NK cells: 77.9%
  percentage of CD107+ NK cells: 76.7%
  percentage of IFNG+ NK cells: 62.2%
  percentage of TNF+ NK cells: 49.6%
NKG2A−/NKG2C+ NK cells; Trial 2
  percentage of CCL3+ NK cells: 87.9%
  percentage of CD107+ NK cells: 79.5%
  percentage of IFNG+ NK cells: 70.5%
  percentage of TNF+ NK cells: 57.3%
NKG2A−/NKG2C+ NK cells; Trial 3
  percentage of CCL3+ NK cells: 84.4%
  percentage of CD107+ NK cells: 84.8%
  percentage of IFNG+ NK cells: 75.9%
  percentage of TNF+ NK cells: 65.5%
NKG2A−/NKG2C+ NK cells; Trial 4
  percentage of CCL3+ NK cells: 74%
  percentage of CD107+ NK cells: 73.4%
  percentage of IFNG+ NK cells: 66.6%
  percentage of TNF+ NK cells: 57.4%
NKG2A−/NKG2C+ NK cells; Trial 5
  percentage of CCL3+ NK cells: 81.2%
  percentage of CD107+ NK cells: 77.9%
  percentage of IFNG+ NK cells: 70.4%
  percentage of TNF+ NK cells: 64.7%
NKG2A−/NKG2C+ NK cells; Trial 6
  percentage of CCL3+ NK cells: 64.6%
  percentage of CD107+ NK cells: 64.2%
  percentage of IFNG+ NK cells: 54%
  percentage of TNF+ NK cells: 43%
NKG2A−/NKG2C− NK cells; Trial 1
  percentage CCL3+ NK cells: 37.2%
  percentage CD107+ NK cells: 27.2%
  percentage TNF+ NK cells: 3.99%
  percentage of IFNG+ NK cells: 15.4%
NKG2A−/NKG2C− NK cells; Trial 2
  percentage CCL3+ NK cells: 56.3%
  percentage CD107+ NK cells: 33.5%
  percentage TNF+ NK cells: 7.5%
  percentage of IFNG+ NK cells: 20.8%
NKG2A−/NKG2C− NK cells; Trial 3
  percentage CCL3+ NK cells: 48.3%
  percentage CD107+ NK cells: 44%
  percentage TNF+ NK cells: 13.8%
  percentage of IFNG+ NK cells: 33.7%
NKG2A−/NKG2C− NK cells; Trial 4
  percentage CCL3+ NK cells: 35.9%
  percentage CD107+ NK cells: 32.1%
  percentage TNF+ NK cells: 10.2%
  percentage of IFNG+ NK cells: 19.3%
NKG2A−/NKG2C− NK cells; Trial 5
  percentage CCL3+ NK cells: 25%
  percentage CD107+ NK cells: 19.2%
  percentage TNF+ NK cells: 5.02%
  percentage of IFNG+ NK cells: 13.7%
NKG2A−/NKG2C− NK cells; Trial 6
  percentage CCL3+ NK cells: 25.1%
  percentage CD107+ NK cells: 22.6%
  percentage TNF+ NK cells: 5.37%
  percentage of IFNG+ NK cells: 12.1%
HLA-E; Trial 1
  HLA-E surface expression stability (GeoMFI): 1174 GeoMFI
HLA-E; Trial 2
  HLA-E surface expression stability (GeoMFI): 921 GeoMFI
HLA-E; Trial 3
  HLA-E surface expression stability (GeoMFI): 887 GeoMFI
HLA-E; Trial 4
  HLA-E surface expression stability (GeoMFI): 1378 GeoMFI
HLA-E; approximate value
  HLA-E surface expression stabilization strength, approximate GeoMFI: approximately 1×10^3 GeoMFI
